Laboratory results reported in article PMC7901654, “Bioisosteric Discovery of NPA101.3, a Second-Generation RET/VEGFR2 Inhibitor Optimized for Single-Agent Polypharmacology” (Journal of Medicinal Chemistry, 2020).
Entries after “also recorded” stand apart in the source; their conditions may differ.

What was measured:
[1] = system: NIH3T3 HRAS/G12V tumors; assay: Mouse xenograft, NIH3T3 HRAS/G12V; type: in vivo
Protocol: In vivo target (RET and VEGFR2) inhibition was studied by treating animals grafted with NIH3T3 RET/C634Y cells at different doses (0.3, 1, or 3 mg/kg/day p.o.) of NPA101.3 for 2 days and then performing Western blot analysis on protein extracts. […] Then, to determine antitumorigenic activity and to better distinguish RET- and VEGFR2-mediated effects, we tested NPA101.3 in nude mice transplanted with NIH3T3 cells transformed by either RET/C634Y or HRAS/G12V. Before tumors appeared, animals were treated daily with NPA101.3 (1.0, 3.0, or 10.0 mg/kg/day) or left untreated. […] Still, VEGFR2 inhibition was detected also in RAS-driven tumors, an effect that might explain the, albeit reduced, effect of the drug on their growth (Figure S13). Importantly, as predicted, no trace of NPA101.3 demethyl metabolites was detected after 1 or 4 h from oral dosing in mice (Figure S14).
Figure 6 Effects of NPA101.3 on in vivo tumor growth. NIH3T3 cells transformed by RET/C634Y or HRAS/G12V were inoculated subcutaneously into nu/nu mice. After 4 days, animals were randomly assigned to receive for the indicated time periods the compound (1.0, 3.0, or 10 mg/kg/day) (24 mice; 8 mice/group for 1, 3, and 10 mg/kg doses) or vehicle (8 mice) by oral gavage. The average size of tumors is reported ± SD.
NPA101.3 was dissolved in 80% H2O, 19.875% Tween 20, and 0.125% xanthan gum. The formulation was stored at room temperature and vortexed prior to administration. NIH3T3 RET/C634Y (200000) or NIH3T3 HRAS/G12V (50000) cells were inoculated subcutaneously into the dorsal portion (both sides) of 6-week-old female BALB/c nu/nu mice (32 mice/cell line) (Jackson Laboratories, Bar Harbor, ME). After 4 days, before tumors had appeared, animals were randomly assigned to receive NPA101.3 (1.0, 3.0, or 10 mg/kg/day) (8 mice/group) or vehicle control (8 mice) by oral gavage. Tumor diameters were measured with caliper every 2–3 days. Tumor volumes (V) were calculated by the rotational ellipsoid formula V = A × B^2/2 (A is the axial diameter, and B is the rotational diameter). […]

[2] = system: Nthy-ori-3.1, BCPAP, 8505-C, PC-9, A549, CALU-1; assay: SHC/MAPK signalling in control cell lines lacking RET oncogenes; type: cell-based, human; conditions: 2 h treatment
Protocol: NPA101.3 inhibited RET autophosphorylation and signaling along the SHC/MAPK pathway in human cancer cell lines endogenously expressing RET oncogenic variants, including MTC cell lines, TT (RET/C634W) and MZ-CRC-1 (RET/M918T), and PTC cell line TPC-1 (CCDC6-RET); in the lung adenocarcinoma cell line Lc-2/ad (CCDC6-RET), only RET and SHC (but not MAPK) dephosphorylation was detectable (Figure S4).
Protein lysates were prepared according to standard procedures. Briefly, cells were lysed in a buffer containing 50 mM N-2-hydroxyethylpiperazine-N′-2-ethanesulfonic acid (HEPES; pH 7.5), 1% (v/v) Triton X-100, 150 mM NaCl, 5 mM EGTA, 50 mM NaF, 20 mM sodium pyrophosphate, 1 mM sodium vanadate, 2 mM phenylmethanesulfonyl fluoride (PMSF), and 1 μg/mL aprotinin. Lysates were clarified by centrifugation at 10000g for 15 min. […] Immune complexes were detected with the enhanced chemiluminescence kit (Amersham Pharmacia Biotech, Little Chalfont, U.K.). Anti-phospho-SHC (#Y317), which recognizes SHC protein when phosphorylated on Y317, was from Upstate Biotechnology Inc. (Lake Placid, NY). Anti-SHC (H-108) was from Santa Cruz Biotechnology (Santa Cruz, CA). Anti-MAPK (9101) and anti-phospho-MAPK (9102), specific for p42/44MAPK (ERK1/2) phosphorylated on Thr202/Tyr204, antibodies were from Cell Signaling Technologies (Danvers, MA). […]

Structure (SMILES): CC(C)(C)c1cc(NC(=O)Cc2ccc(-n3cnc4cc(-c5ccc(S(C)(=O)=O)cc5)ccc43)cc2)no1 [NPA101.3]
- formation of tumors driven by HRAS/G12V ([1]; 10 mg/kg/day oral, nu/nu mice): weakened, but did not abrogate; also recorded: reduced, but did not abrogate
- RAS signaling (MAPK phosphorylation) in NIH3T3 HRAS/G12V tumors ([1]; 3 h after last dose): virtually no effect
- VEGFR2 inhibition in RAS-driven tumors ([1]; 3 h after last dose): detected
- effect on SHC/MAPK signaling [2]: Virtually no effect
